Conditions: Liquid; for speed of sound: Pulse-echo method; for mass density: Vibrating tube method

CCCCC/C=C\C/C=C\CCCCCCCC(=O)OC [methyl (Z,Z)-9,12-octadecadienate]
Conditions	mass density [kg/m3]	speed of sound [m/s]
283.15 K, 101.3 kPa	–	1455
283.15 K, 10000 kPa	–	1498.2
283.15 K, 20000 kPa	–	1539
283.15 K, 30000 kPa	–	1577.6
283.15 K, 40000 kPa	–	1614.3
283.15 K, 50000 kPa	–	1649.2
283.15 K, 60000 kPa	–	1682.6
283.15 K, 70000 kPa	–	1714
283.15 K, 80000 kPa	–	1745.2
283.15 K, 90000 kPa	–	1774.4
283.15 K, 100000 kPa	–	1803.2
283.15 K, 110000 kPa	–	1830.9
283.15 K, 120000 kPa	–	1857.8
283.15 K, 130000 kPa	–	1884.6
283.15 K, 140000 kPa	–	1909.9
283.15 K, 150000 kPa	–	1934.7
293.15 K, 101.3 kPa	885.2	–
293.15 K, 10000 kPa	891.2	–
293.15 K, 20000 kPa	896.6	–
293.15 K, 30000 kPa	901.8	–
293.15 K, 40000 kPa	906.8	–
293.15 K, 50000 kPa	911.4	–
293.15 K, 60000 kPa	915.9	–
293.15 K, 70000 kPa	920.2	–
293.15 K, 80000 kPa	924	–
293.15 K, 90000 kPa	928.2	–
293.15 K, 100000 kPa	931.3	–
303.15 K, 101.3 kPa	877.7	1382.9
303.15 K, 10000 kPa	884	1428.9
303.15 K, 20000 kPa	889.6	1472.2
303.15 K, 30000 kPa	895	1513.6
303.15 K, 40000 kPa	900.1	1552
303.15 K, 50000 kPa	905	1588.6
303.15 K, 60000 kPa	909.5	1623.5
303.15 K, 70000 kPa	914	1656.3
303.15 K, 80000 kPa	918.1	1688.3
303.15 K, 90000 kPa	922.2	1719.1
303.15 K, 100000 kPa	926.2	1748.7
303.15 K, 110000 kPa	–	1776.9
303.15 K, 120000 kPa	–	1804.4
303.15 K, 130000 kPa	–	1831.3
303.15 K, 140000 kPa	–	1857
303.15 K, 150000 kPa	–	1883.6
303.15 K, 170000 kPa	–	1932.3
303.15 K, 190000 kPa	–	1979.7
303.15 K, 210000 kPa	–	2023.6
313.15 K, 101.3 kPa	870.9	–
313.15 K, 10000 kPa	877.1	–
313.15 K, 20000 kPa	882.9	–
313.15 K, 30000 kPa	888.5	–
313.15 K, 40000 kPa	893.7	–
313.15 K, 50000 kPa	898.8	–
313.15 K, 60000 kPa	903.3	–
313.15 K, 70000 kPa	908	–
313.15 K, 80000 kPa	912.2	–
313.15 K, 90000 kPa	916.6	–
313.15 K, 100000 kPa	920.6	–
323.15 K, 101.3 kPa	863.7	1312.6
323.15 K, 10000 kPa	870.1	1361.4
323.15 K, 20000 kPa	876.3	1407.2
323.15 K, 30000 kPa	882	1450.8
323.15 K, 40000 kPa	887.3	1491.3
323.15 K, 50000 kPa	892.4	1530.3
323.15 K, 60000 kPa	897.4	1567.2
323.15 K, 70000 kPa	902.1	1601.4
323.15 K, 80000 kPa	906.7	1634.3
323.15 K, 90000 kPa	910.9	1666.2
323.15 K, 100000 kPa	915.1	1697.2
323.15 K, 110000 kPa	–	1726.4
323.15 K, 120000 kPa	–	1754.6
323.15 K, 130000 kPa	–	1782.4
323.15 K, 140000 kPa	–	1808.7
323.15 K, 150000 kPa	–	1834.7
323.15 K, 170000 kPa	–	1884.5
323.15 K, 190000 kPa	–	1931.7
323.15 K, 210000 kPa	–	1977.6
333.15 K, 101.3 kPa	856.3	–
333.15 K, 10000 kPa	863	–
333.15 K, 20000 kPa	869.5	–
333.15 K, 30000 kPa	875.4	–
333.15 K, 40000 kPa	881.3	–
333.15 K, 50000 kPa	886.5	–
333.15 K, 60000 kPa	891.5	–
333.15 K, 70000 kPa	896.4	–
333.15 K, 80000 kPa	900.9	–
333.15 K, 90000 kPa	905.4	–
333.15 K, 100000 kPa	910	–
343.15 K, 101.3 kPa	849.1	1245.1
343.15 K, 10000 kPa	856.2	1297.9
343.15 K, 20000 kPa	863	1346.9
343.15 K, 30000 kPa	869.3	1392.6
343.15 K, 40000 kPa	875.1	1435.4
343.15 K, 50000 kPa	880.8	1475.1
343.15 K, 60000 kPa	885.9	1513.2
343.15 K, 70000 kPa	890.9	1549.4
343.15 K, 80000 kPa	895.7	1583.9
343.15 K, 90000 kPa	900.3	1616.7
343.15 K, 100000 kPa	904.7	1648.6
343.15 K, 110000 kPa	–	1679
343.15 K, 120000 kPa	–	1708.5
343.15 K, 130000 kPa	–	1736.1
343.15 K, 140000 kPa	–	1763.4
343.15 K, 150000 kPa	–	1789.7
343.15 K, 170000 kPa	–	1840.9
343.15 K, 190000 kPa	–	1889.3
343.15 K, 210000 kPa	–	1935.4
353.15 K, 101.3 kPa	841.8	–
353.15 K, 10000 kPa	849.3	–
353.15 K, 20000 kPa	856.2	–
353.15 K, 30000 kPa	862.8	–
353.15 K, 40000 kPa	868.9	–
353.15 K, 50000 kPa	874.6	–
353.15 K, 60000 kPa	879.9	–
353.15 K, 70000 kPa	885.2	–
353.15 K, 80000 kPa	890	–
353.15 K, 90000 kPa	894.7	–
353.15 K, 100000 kPa	899.3	–
363.15 K, 101.3 kPa	834.7	1180.3
363.15 K, 10000 kPa	842.2	1237
363.15 K, 20000 kPa	849.5	1288.6
363.15 K, 30000 kPa	856.4	1336.6
363.15 K, 40000 kPa	862.6	1381.1
363.15 K, 50000 kPa	868.4	1422.6
363.15 K, 60000 kPa	873.9	1462.6
363.15 K, 70000 kPa	879.1	1500.2
363.15 K, 80000 kPa	884.1	1536.1
363.15 K, 90000 kPa	889	1570.2
363.15 K, 100000 kPa	893.9	1602.5
363.15 K, 110000 kPa	–	1634
363.15 K, 120000 kPa	–	1663.9
363.15 K, 130000 kPa	–	1693
363.15 K, 140000 kPa	–	1720.3
363.15 K, 150000 kPa	–	1747.4
363.15 K, 170000 kPa	–	1799.1
363.15 K, 190000 kPa	–	1847.3
363.15 K, 210000 kPa	–	1894.7
373.15 K, 101.3 kPa	826.5	–
373.15 K, 10000 kPa	835.3	–
373.15 K, 20000 kPa	842.9	–
373.15 K, 30000 kPa	849.9	–
373.15 K, 40000 kPa	856.4	–
373.15 K, 50000 kPa	862.4	–
373.15 K, 60000 kPa	868.3	–
373.15 K, 70000 kPa	873.9	–
373.15 K, 80000 kPa	879.3	–
373.15 K, 90000 kPa	884.3	–
373.15 K, 100000 kPa	889.1	–
383.15 K, 101.3 kPa	819.3	1118.2
383.15 K, 10000 kPa	828.2	1178.7
383.15 K, 20000 kPa	836.2	1233.8
383.15 K, 30000 kPa	843.5	1283.1
383.15 K, 40000 kPa	850.2	1329
383.15 K, 50000 kPa	856.8	1372.3
383.15 K, 60000 kPa	862.7	1413.2
383.15 K, 70000 kPa	868.2	1452.3
383.15 K, 80000 kPa	873.5	1489.5
383.15 K, 90000 kPa	878.7	1525.2
383.15 K, 100000 kPa	883.9	1558.2
383.15 K, 110000 kPa	–	1590.3
383.15 K, 120000 kPa	–	1621.1
383.15 K, 130000 kPa	–	1650.8
383.15 K, 140000 kPa	–	1679.1
383.15 K, 150000 kPa	–	1707.1
383.15 K, 170000 kPa	–	1759.8
383.15 K, 190000 kPa	–	1808.6
383.15 K, 210000 kPa	–	1855.8
393.15 K, 101.3 kPa	811.9	1088
393.15 K, 10000 kPa	820.9	1150.9
393.15 K, 20000 kPa	829.3	1207.3
393.15 K, 30000 kPa	837	1258.5
393.15 K, 40000 kPa	844.1	1304.7
393.15 K, 50000 kPa	850.5	1348.4
393.15 K, 60000 kPa	856.7	1389.4
393.15 K, 70000 kPa	862.4	1428.7
393.15 K, 80000 kPa	867.9	1466.7
393.15 K, 90000 kPa	873	1503.1
393.15 K, 100000 kPa	878.1	1537.7
393.15 K, 110000 kPa	–	1570
393.15 K, 120000 kPa	–	1600.8
393.15 K, 130000 kPa	–	1630.7
393.15 K, 140000 kPa	–	1660.1
393.15 K, 150000 kPa	–	1688
393.15 K, 170000 kPa	–	1740.7
393.15 K, 190000 kPa	–	1790
393.15 K, 210000 kPa	–	1838.1
